Our source for the inhibition values is US9951040B2, “1,3,5 -triazine based PI3K inhibitors as anticancer agents and a process for the preparation thereof” (Council of Scientific and Industrial Research, priority 2014, dated 2018).

Like-named read-outs stand apart in the source and are kept apart here. Some results are limits rather than exact numbers.

The test concerns the target PI3K alpha (Homo sapiens, UniProt P42336). The test is described as follows: PI3K-α assay (ADP-Glo enzyme inhibition). It counts as biochemical. The note with it: at 500 nm. The method, then:
Compounds were evaluated for their ability to inhibit class I PI3-kinase enzyme alpha as given below. PI3K-α Assay: PI3K alpha (diluted in 12.5 mM Glycine-NaOH (pH 8.5), 50 mM KCl, 2.5 mM MgCl2, 1 mM DTT, 0.05% CHAPS) is assayed in total volume of 20 ul containing 12.5 mM glycine-NaOH (pH 8.5), 50 mM KCl, 2.5 mM MgCl2, 1 mM DTT, 0.05% CHAPS, 0.01 mM ATP and 0.05 mM diC8 PIP2. The enzyme is assayed for 80 min after which 20 ul of ADP-Glo reagent is added. After a further incubation of 40 min, 40 ul of Kinase Detection Buffer is added. The assays are incubated for 40 min and then read on PerkinElmer Envision for 1 sec/well.
(ADP-Glo turns the ADP formed in a reaction into a luminescent signal.)

The mark [1] stands for this setting: read-out: In vitro PI3K α % of inhibition.
The mark [2] stands for this setting: read-out: inhibition against PI3K alpha.

PI3K alpha, sequence (P42336 whole entry, species assumed): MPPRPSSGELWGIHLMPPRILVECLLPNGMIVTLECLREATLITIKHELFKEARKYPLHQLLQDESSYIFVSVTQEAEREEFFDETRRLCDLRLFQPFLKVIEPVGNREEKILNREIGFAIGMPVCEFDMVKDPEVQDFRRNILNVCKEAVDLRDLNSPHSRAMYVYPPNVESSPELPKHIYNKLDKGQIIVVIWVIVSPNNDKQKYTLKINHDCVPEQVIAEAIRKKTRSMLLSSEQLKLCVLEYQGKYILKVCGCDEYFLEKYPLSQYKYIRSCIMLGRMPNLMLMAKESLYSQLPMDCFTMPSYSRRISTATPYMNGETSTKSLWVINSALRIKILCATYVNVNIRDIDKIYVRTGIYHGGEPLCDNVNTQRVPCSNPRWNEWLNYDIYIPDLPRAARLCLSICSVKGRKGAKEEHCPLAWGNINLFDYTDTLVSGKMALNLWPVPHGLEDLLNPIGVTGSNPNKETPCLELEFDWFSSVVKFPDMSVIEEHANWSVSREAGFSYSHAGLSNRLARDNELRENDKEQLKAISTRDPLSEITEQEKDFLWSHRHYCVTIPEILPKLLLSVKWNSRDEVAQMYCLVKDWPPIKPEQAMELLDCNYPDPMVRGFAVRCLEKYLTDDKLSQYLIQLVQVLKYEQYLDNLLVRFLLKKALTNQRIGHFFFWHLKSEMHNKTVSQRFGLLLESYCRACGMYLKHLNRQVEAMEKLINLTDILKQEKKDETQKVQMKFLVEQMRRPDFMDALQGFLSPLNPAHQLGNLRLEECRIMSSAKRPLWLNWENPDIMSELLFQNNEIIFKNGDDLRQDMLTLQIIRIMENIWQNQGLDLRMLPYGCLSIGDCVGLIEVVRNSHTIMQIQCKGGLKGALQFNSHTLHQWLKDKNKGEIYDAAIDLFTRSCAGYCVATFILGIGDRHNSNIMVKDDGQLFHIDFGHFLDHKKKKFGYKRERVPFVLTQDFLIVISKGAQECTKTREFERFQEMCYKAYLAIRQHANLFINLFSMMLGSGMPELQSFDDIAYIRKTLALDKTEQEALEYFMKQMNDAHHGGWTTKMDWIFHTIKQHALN
PI3K alpha, sequence (P27986 whole entry partner, species assumed): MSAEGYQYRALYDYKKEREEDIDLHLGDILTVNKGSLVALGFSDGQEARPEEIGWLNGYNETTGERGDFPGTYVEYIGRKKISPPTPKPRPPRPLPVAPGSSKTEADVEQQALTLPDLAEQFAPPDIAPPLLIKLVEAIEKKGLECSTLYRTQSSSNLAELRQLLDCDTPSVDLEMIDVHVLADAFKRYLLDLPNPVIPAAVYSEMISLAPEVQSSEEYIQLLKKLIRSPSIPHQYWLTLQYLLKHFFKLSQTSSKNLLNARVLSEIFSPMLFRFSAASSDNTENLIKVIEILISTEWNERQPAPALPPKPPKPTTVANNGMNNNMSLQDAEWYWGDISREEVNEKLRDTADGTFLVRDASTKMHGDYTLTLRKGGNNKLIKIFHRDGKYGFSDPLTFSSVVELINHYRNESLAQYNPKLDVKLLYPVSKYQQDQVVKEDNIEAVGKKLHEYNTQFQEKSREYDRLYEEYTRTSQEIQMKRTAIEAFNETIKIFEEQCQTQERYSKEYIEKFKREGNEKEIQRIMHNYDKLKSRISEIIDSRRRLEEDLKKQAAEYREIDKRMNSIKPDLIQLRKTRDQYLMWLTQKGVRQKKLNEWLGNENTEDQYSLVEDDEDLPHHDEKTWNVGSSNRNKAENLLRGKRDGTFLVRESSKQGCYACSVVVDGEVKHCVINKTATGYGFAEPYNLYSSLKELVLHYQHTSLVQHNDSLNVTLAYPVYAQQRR

Consider `Fc1ccc2c(c1)ncn2-c1nc(N2CCOCC2)nc(N2CCC(Oc3ccc(C(F)(F)F)cc3)CC2)n1` [1B14, 4-(4-(5-fluoro-1H-benzo[d]imidazol-1-yl)-6-(4-(4-(trifluoromethyl)phenoxy)piperidin-1-yl)-1,3,5-triazin-2-yl)morpholine], for which the inhibition (as a rule, the percentage by which the read-out fell short of the control) at 0.5 µM under setting [1] was in the range of 50 to 70%.

With `CN(c1ccccc1)c1nc(N2CCOCC2)nc(N2CCC(Oc3ccc(F)cc3)CC2)n1` [1A1, 4-(4-(4-fluorophenoxy)piperidin-1-yl)-N-methyl-6-morpholino-N-phenyl-1,3,5-triazin-2-amine], the inhibition at 0.5 µM under setting [1] was 50 to 70%.

As to `Clc1ccccc1NC1CCN(c2nc(N3CCOCC3)nc(-n3cnc4ccccc43)n2)CC1` [1B39, 1-(4-(1H-benzo[d]imidazol-1-yl)-6-morpholino-1,3,5-triazin-2-yl)-N-(2-chlorophenyl)piperidin-4-amine], the inhibition at 0.5 µM under setting [1] was in the range of 50 to 70%.

For the compound `O=C(N(C(=O)C(F)(F)F)c1nc(N2CCOCC2)nc(N2CCC(Oc3ccc(F)cc3)CC2)n1)C(F)(F)F` [1A13, 2,2,2-trifluoro-N-(4-(4-(4-fluorophenoxy)piperidin-1-yl)-6-morpholino-1,3,5-triazin-2-yl)-N-(2,2,2-trifluoroacetyl)acetamide], the inhibition at 0.5 µM under setting [1] lay in the range of 50 to 70%.

With `CN(c1ccccc1)c1nc(N2CCOCC2)nc(N2CCC(Oc3ccccc3F)CC2)n1` [1A2, 4-(4-(2-fluorophenoxy)piperidin-1-yl)-N-methyl-6-morpholino-N-phenyl-1,3,5-triazin-2-amine], the inhibition at 0.5 µM under setting [1] was 50 to 70%.

Turning to `FC(F)(F)Oc1ccc(OC2CCN(c3nc(N4CCOCC4)nc(-n4cnc5ccccc54)n3)CC2)cc1` [1B16, 4-(4-(1H-benzo[d]imidazol-1-yl)-6-(4-(4-(trifluoromethoxy)phenoxy)piperidin-1-yl)-1,3,5-triazin-2-yl)morpholine], the inhibition at 0.5 µM under setting [1] was in the range of 50 to 70%.

As to `COc1cccc(NC2CCN(c3nc(N4CCOCC4)nc(-n4c(C(F)F)nc5ccccc54)n3)CC2)c1` [1B31, 1-(4-(2-(difluoromethyl)-1H-benzo[d]imidazol-1-yl)-6-morpholino-1,3,5-triazin-2-yl)-N-(3-methoxyphenyl)piperidin-4-amine], the inhibition at 0.5 µM is, setting by setting: under setting [1], greater than 70%; under setting [2], greater than 70%.

As to `CN(C)c1nc(N2CCOCC2)nc(N2CCC(Oc3ccc(F)cc3)CC2)n1` [1A17, 4-(4-(4-fluorophenoxy)piperidin-1-yl)-N,N-dimethyl-6-morpholino-1,3,5-triazin-2-amine], the inhibition at 0.5 µM under setting [1] is 50 to 70%.

Take `FC(F)(F)c1ccc(NC2CCN(c3nc(N4CCOCC4)nc(-n4cnc5ccccc54)n3)CC2)cc1` [1B35, 1-(4-(1H-benzo[d]imidazol-1-yl)-6-morpholino-1,3,5-triazin-2-yl)-N-(4-(trifluoromethyl)phenyl)piperidin-4-amine]: under setting [1], the inhibition at 0.5 µM was in the range of 50 to 70%.

In the case of `O=C(N(c1ccccc1)c1nc(N2CCOCC2)nc(N2CCC(Oc3ccc(C(F)(F)F)cc3)CC2)n1)C(F)(F)F` [1A7, 2,2,2-trifluoro-N-(4-morpholino-6-(4-(4-(trifluoromethyl)phenoxy)piperidin-1-yl)-1,3,5-triazin-2-yl)-N-phenylacetamide], the inhibition at 0.5 µM under setting [1] fell in the range of 50 to 70%.

In the case of `O=C(N(c1ccccc1)c1nc(N2CCOCC2)nc(N2CCC(Oc3ccccc3)CC2)n1)C(F)(F)F` [1A4, 2,2,2-trifluoro-N-(4-morpholino-6-(4-phenoxypiperidin-1-yl)-1,3,5-triazin-2-yl)-N-phenylacetamide], the inhibition at 0.5 µM under setting [1] was 50 to 70%.

For `CN(c1ccc(F)cc1)c1nc(N2CCOCC2)nc(N2CCC(Oc3ccc(F)cc3)CC2)n1` [1A3, 4-(4-(4-fluorophenoxy)piperidin-1-yl)-N-(4-fluorophenyl)-N-methyl-6-morpholino-1,3,5-triazin-2-amine], the inhibition at 0.5 µM under setting [1] is greater than 70% and the inhibition at 0.5 µM under setting [2] was greater than 70%.

As to `Fc1ccc(OC2CCN(c3nc(N4CCOCC4)nc(-n4cnc5ccccc54)n3)CC2)cc1` [1B17, 4-(4-(1H-benzo[d]imidazol-1-yl)-6-(4-(4-fluorophenoxy)piperidin-1-yl)-1,3,5-triazin-2-yl)morpholine], the inhibition at 0.5 µM under setting [1] fell in the range of 50 to 70%.

For `Cc1ccc(OC2CCN(c3nc(N4CCOCC4)nc(-n4c(C(F)F)nc5ccccc54)n3)CC2)cc1` [1B10, 4-(4-(2-(difluoromethyl)-1H-benzo[d]imidazol-1-yl)-6-(4-(p-tolyloxy)piperidin-1-yl)-1,3,5-triazin-2-yl)morpholine], the inhibition at 0.5 µM under setting [1] was in the range of 50 to 70%.

As to `O=C(N(C(=O)C(F)(F)F)c1nc(N2CCOCC2)nc(N2CCC(Oc3ccccc3)CC2)n1)C(F)(F)F` [1A12, 2,2,2-trifluoro-N-(4-morpholino-6-(4-phenoxypiperidin-1-yl)-1,3,5-triazin-2-yl)-N-(2,2,2-trifluoroacetyl)acetamide], under setting [1], the inhibition at 0.5 µM is 50 to 70%.

Take `c1ccc(OC2CCN(c3nc(N4CCOCC4)nc(N(c4ccccc4)c4ccccc4)n3)CC2)cc1` [1A18, 4-morpholino-6-(4-phenoxypiperidin-1-yl)-N,N-diphenyl-1,3,5-triazin-2-amine]: under setting [1], the inhibition at 0.5 µM is 50 to 70%.

For `FC(F)(F)Oc1ccc(OC2CCN(c3nc(N4CCOCC4)nc(N(c4ccccc4)c4ccccc4)n3)CC2)cc1` [1A20, 4-morpholino-N,N-diphenyl-6-(4-(4-(trifluoromethoxy)phenoxy)piperidin-1-yl)-1,3,5-triazin-2-amine], the inhibition at 0.5 µM under setting [1] lay in the range of 50 to 70%.

Regarding `Fc1ccccc1OC1CCN(c2nc(N3CCOCC3)nc(-n3cnc4ccccc43)n2)CC1` [1B18, 4-(4-(1H-benzo[d]imidazol-1-yl)-6-(4-(2-fluorophenoxy)piperidin-1-yl)-1,3,5-triazin-2-yl)morpholine], the inhibition at 0.5 µM under setting [1] was greater than 70% and the inhibition at 0.5 µM under setting [2] was greater than 70%.

For the compound `CN(C(=O)C(F)(F)F)c1nc(N2CCOCC2)nc(N2CCC(Oc3ccc(F)cc3)CC2)n1` [1A15, 2,2,2-trifluoro-N-(4-(4-(4-fluorophenoxy)piperidin-1-yl)-6-morpholino-1,3,5-triazin-2-yl)-N-methylacetamide], the inhibition at 0.5 µM by setting is: under setting [1], greater than 70%; under setting [2], greater than 70%.

As for `Fc1ccc(N(c2ccc(Cl)cc2)C2CCN(c3nc(N4CCOCC4)nc(-n4c(C(F)F)nc5ccccc54)n3)CC2)cc1` [1B44, N-(4-chlorophenyl)-1-(4-(2-(difluoromethyl)-1H-benzo[d]imidazol-1-yl)-6-morpholino-1,3,5-triazin-2-yl)-N-(4-fluorophenyl)piperidin-4-amine], the inhibition at 0.5 µM under setting [1] is 50 to 70%.

On to `FC(F)(F)c1ccc(OC2CCN(c3nc(N4CCOCC4)nc(-n4cnc5ccccc54)n3)CC2)cc1` [1B15, 4-(4-(1H-benzo[d]imidazol-1-yl)-6-(4-(4-(trifluoromethyl)phenoxy)piperidin-1-yl)-1,3,5-triazin-2-yl)morpholine], for which the inhibition at 0.5 µM is greater than 70% under setting [1] and greater than 70% under setting [2].

In the case of `Clc1ccccc1OC1CCN(c2nc(N3CCOCC3)nc(-n3cnc4ccccc43)n2)CC1` [1B19, 4-(4-(1H-benzo[d]imidazol-1-yl)-6-(4-(2-chlorophenoxy)piperidin-1yl)-1,3,5-triazin-2-yl)morpholine], the inhibition at 0.5 µM runs as follows: under setting [1], greater than 70%; under setting [2], greater than 70%.

`FC(F)c1cc2ccccc2n1-c1nc(N2CCOCC2)nc(N2CCC(Nc3ccc(OC(F)(F)F)cc3)CC2)n1` [1B48, 1-(4-(2-(difluoromethyl)-1H-indol-1-yl)-6-morpholino-1,3,5-triazin-2-yl)-N-(4-(trifluoromethoxy)phenyl)piperidin-4-amine]: under setting [1], the inhibition at 0.5 µM fell in the range of 50 to 70%.
